The values below come from the supplement of paper PMC11061612.

Experiment in all cases: Bliss excess, mean over the matrix (fraction); higher = more synergy
For assay [1], the system named is NCI-H2066 (Squamous Cell Lung Carcinoma). In a few lines:
(§1)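 After 24 hours at 37°C and 5% CO2 in 1536-well plates, cells in DMEM/F12 or RPMI plus 10% FBS received two-drug dose matrices for 72 hours. Viability came from CellTiter-Glo 2.0 luminescence and was scaled as inhibition, anchored at 0 by vehicle wells and at 1 by blank wells. Combination Emax is taken as the second-highest inhibition in the matrix, and Bliss excess as the observed combination effect less EA + EB − EA·EB, with EA and EB the single-agent effects.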

In assay [2] the test system is TT2609-C02 (Thyroid Gland Carcinoma). In short, it runs like this:
as §1

Another assay relates to ARH-77 (Non-Cancerous). In short, it runs like this:
as §1

A further assay deals with IGR-37 (Melanoma). In short, it runs like this: as §1
In assay [3] the test system is SK-MG-1 (Low Grade Glioma). In short, it runs like this: as §1
For a further assay, the system named is GI-ME-N (Neuroblastoma). In short, it runs like this: as §1
Assay [4] concerns A3-KAW (B-Cell Non-Hodgkin's Lymphoma). In short, it runs like this:
as §1

Assay [5] has as its system CAL-29 (Bladder Carcinoma). In short, it runs like this: as §1
Another assay concerns A498 (Kidney Carcinoma). In short, it runs like this:
as §1

For assay [6], the system named is SK-MES-1 (Squamous Cell Lung Carcinoma). In a few lines: as §1
The next assay has as its system LN-405 (Glioblastoma). In short, it runs like this: as §1
Assay [7] deals with TT (Thyroid Gland Carcinoma). In a few lines: as §1
Assay [8] relates to JSC-1 (B-Cell Non-Hodgkin's Lymphoma). In short, it runs like this: as §1
The test system of assay [9] is HCC1954 (Breast Carcinoma). In short, it runs like this:
as §1

For assay [10], the system named is A549 (Lung Adenocarcinoma). In a few lines:
as §1

In assay [11] the test system is VCaP (Prostate Carcinoma). In short, it runs like this: as §1
Assay [12] concerns PANC-10-05 (Pancreatic Carcinoma). In a few lines:
as §1

In a further assay the test system is 8-MG-BA (Glioblastoma). In a few lines:
as §1

The subject of assay [13] is NCI-H64 (Small Cell Lung Carcinoma). In short, it runs like this:
as §1

Another assay deals with NCI-H2591 (Mesothelioma). In short, it runs like this: as §1

`CN(C)CCCOc1ccc(-c2ccc3ncc4c(c3c2)n(C2CCOCC2)c(=O)n4C)cn1` [AZD0156] + C=CCn1c(=O)c2cnc(Nc3ccc(N4CCN(C)CC4)cc3)nc2n1-c1cccc(C(C)(C)O)n1 [AZD1775] (first compound max 1 µM, partner max 1 µM): the Bliss excess in assay [1] is -0.07; in assay [2], -0.0119; in the assay with ARH-77 (Non-Cancerous), -0.0207; in the assay with IGR-37 (Melanoma) it was -0.0159; in [3] it was 0.0174; in the assay on GI-ME-N (Neuroblastoma) it was -0.0452. The Bliss excess in assay [4] was 0.0707; in assay [5], -0.0301; in the assay on A498 (Kidney Carcinoma), -0.0532; in assay [6], -0.0176; in the assay on LN-405 (Glioblastoma), -0.0478; in assay [7] it was -0.0951. The Bliss excess was -0.0102 in [8]; -0.034 in [9]; -0.0807 in assay [10]; -0.0751 in assay [11]; -0.0519 in [12]; -0.0587 with 8-MG-BA (Glioblastoma). Besides, the results for the Bliss excess (in [13]; in the assay on NCI-H2591 (Mesothelioma)) were -0.0931 and -0.0306, respectively.
For the compound `CN(C)CCCOc1ccc(-c2ccc3ncc4c(c3c2)n(C2CCOCC2)c(=O)n4C)cn1` [AZD0156] + CCN(CCO)CCCOc1ccc2c(Nc3cc(CC(=O)Nc4cccc(F)c4)[nH]n3)ncnc2c1 [AZD2811] (first compound max 1 µM, 7x7, partner max 1 µM), the Bliss excess in [1] is -0.0649; in assay [2], -0.0032; with ARH-77 (Non-Cancerous) it was 0.0216; with IGR-37 (Melanoma), -0.0191; in assay [3], 0.0212; with GI-ME-N (Neuroblastoma), -0.0488. Moreover, the Bliss excess in assay [4] was 0.121; in assay [5], 0.0269; in the assay on A498 (Kidney Carcinoma), -0.0302; in assay [6], -0.0458; in the assay with LN-405 (Glioblastoma), -0.0356; in assay [7], -0.0871. Moreover, the Bliss excess in [8] is 0.0161; in assay [9], -0.0137; in assay [10], -0.0431; in [11] it was -0.0484; in [12], -0.0169; in the assay on 8-MG-BA (Glioblastoma) it was -0.0033. Moreover, the Bliss excess was 0.0802 in assay [13] and -0.0204 with NCI-H2591 (Mesothelioma).
With `CN(C)CCCOc1ccc(-c2ccc3ncc4c(c3c2)n(C2CCOCC2)c(=O)n4C)cn1` [AZD0156] + C[C@@H]1COCCN1C2=NC(=NC(=C2)C3(CC3)[S@](=N)(=O)C)C4=C5C=CNC5=NC=C4 [AZD6738] (first compound max 1 µM, 7x7, partner max 10 µM), the Bliss excess in assay [1] is -0.0404; in assay [2], -0.0067; with ARH-77 (Non-Cancerous), 0.0673; in the assay on IGR-37 (Melanoma) it was -0.0153; in [3], 0.0249; in the assay on GI-ME-N (Neuroblastoma) it was -0.015. The Bliss excess is 0.0876 in assay [4]; 0.0162 in [5]; -0.0347 with A498 (Kidney Carcinoma); -0.0406 in [6]; -0.0236 in the assay with LN-405 (Glioblastoma); -0.0583 in [7]. The Bliss excess is 0.0233 in assay [8]; 0.0016 in [9]; -0.0652 in [10]; -0.037 in [11]; -0.0415 in assay [12]; 0.0389 with 8-MG-BA (Glioblastoma). The Bliss excess in [13] was -0.0368; with NCI-H2591 (Mesothelioma), -0.0461.
`CN(C)CCCOc1ccc(-c2ccc3ncc4c(c3c2)n(C2CCOCC2)c(=O)n4C)cn1` [AZD0156] + O=C(c1cc(Cc2n[nH]c(=O)c3ccccc23)ccc1F)N1CCN(C(=O)C2CC2)CC1 [Olaparib] (first compound max 3 µM, partner max 3 µM): the Bliss excess in assay [1] was 0.0139; in assay [2], 0.0251; in the assay with ARH-77 (Non-Cancerous), 0.0648; in the assay with IGR-37 (Melanoma) it was -0.0103; in assay [3], 0.0333; with GI-ME-N (Neuroblastoma), -0.0116. For the same compound, the Bliss excess was 0.276 in [4]; 0.0098 in assay [5]; 0.047 with A498 (Kidney Carcinoma); -0.0199 in assay [6]; -0.0375 with LN-405 (Glioblastoma); -0.0297 in assay [7]. The Bliss excess came to 0.171 in assay [8]; 0.0066 in assay [9]; 0.0069 in assay [10]; 0.0063 in [11]; 0.0378 in assay [12]; 0.079 in the assay with 8-MG-BA (Glioblastoma). In addition, the Bliss excess is -0.0106 in [13] and -0.0248 with NCI-H2591 (Mesothelioma).
As for `C=CCn1c(=O)c2cnc(Nc3ccc(N4CCN(C)CC4)cc3)nc2n1-c1cccc(C(C)(C)O)n1` [AZD1775] + C1CN(CCC1(C(=O)N[C@@H](CCO)C2=CC=C(C=C2)Cl)N)C3=NC=NC4=C3C=CN4 [Capivasertib] (first compound max 3 µM, partner max 3 µM), the Bliss excess in [1] is -0.0567; in assay [2], 0.0087; in the assay on ARH-77 (Non-Cancerous) it was 0.018; with IGR-37 (Melanoma), -0.0316; in assay [3] it was -0.0212; in the assay with GI-ME-N (Neuroblastoma) it was -0.0726. The Bliss excess in [4] is 0.0032; in [5], 0.0187; with A498 (Kidney Carcinoma), -0.0315; in assay [6] it was 0.04; with LN-405 (Glioblastoma), -0.0436; in assay [7], -0.0079. The Bliss excess was -0.0146 in assay [8]; 0.002 in assay [9]; 0.015 in assay [10]; -0.061 in assay [11]; -0.102 in assay [12]; 0.0277 in the assay on 8-MG-BA (Glioblastoma). The values for the Bliss excess (in assay [13]; in the assay with NCI-H2591 (Mesothelioma)) were 0.0202 and -0.035, respectively.
In the case of `C=CCn1c(=O)c2cnc(Nc3ccc(N4CCN(C)CC4)cc3)nc2n1-c1cccc(C(C)(C)O)n1` [AZD1775] + C[C@@H]1COCCN1C2=NC(=NC(=C2)C3(CC3)[S@](=N)(=O)C)C4=C5C=CNC5=NC=C4 [AZD6738] (first compound max 1 µM, partner max 10 µM), the Bliss excess in [1] is 0.0216; in assay [2], -0.0026; with ARH-77 (Non-Cancerous) it was 0.0324; with IGR-37 (Melanoma) it was 0.0017; in [3] it was -0.0173; in the assay with GI-ME-N (Neuroblastoma), -0.0397. In addition, the Bliss excess in [4] is 0.0285; in [5], -0.006; in the assay on A498 (Kidney Carcinoma), -0.0536; in assay [6], -0.0223; in the assay with LN-405 (Glioblastoma) it was -0.0025; in assay [7], -0.0676. In addition, the Bliss excess was 0.0409 in assay [8]; 0.111 in assay [9]; -0.0313 in assay [10]; 0.006 in [11]; -0.0611 in [12]; -0.032 with 8-MG-BA (Glioblastoma). Moreover, the Bliss excess in [13] was 0.0015; with NCI-H2591 (Mesothelioma), -0.0355.
Turning to `C=CCn1c(=O)c2cnc(Nc3ccc(N4CCN(C)CC4)cc3)nc2n1-c1cccc(C(C)(C)O)n1` [AZD1775] + O=C(c1cc(Cc2n[nH]c(=O)c3ccccc23)ccc1F)N1CCN(C(=O)C2CC2)CC1 [Olaparib] (first compound max 1 µM, partner max 10 µM), the Bliss excess in assay [1] is -0.0407; in assay [2] it was -0.0311; in the assay with ARH-77 (Non-Cancerous) it was -0.004; in the assay on IGR-37 (Melanoma), -0.0132; in assay [3] it was 0.0058; in the assay on GI-ME-N (Neuroblastoma) it was -0.0434. Besides, the Bliss excess in assay [4] was 0.0183; in assay [5] it was -0.0722; in the assay with A498 (Kidney Carcinoma), -0.067; in assay [6], -0.0915; with LN-405 (Glioblastoma) it was -0.0583; in assay [7] it was -0.0543. Moreover, the Bliss excess in assay [8] is -0.0434; in assay [9], -0.0208; in [10] it was -0.0667; in assay [11] it was -0.0494; in [12] it was -0.0871; with 8-MG-BA (Glioblastoma) it was -0.0163. The Bliss excess in assay [13] is -0.0547; in the assay with NCI-H2591 (Mesothelioma), -0.053.
